Experimental data taken from PMC7796031, “Studies of Coumarin Derivatives for Constitutive Androstane Receptor (CAR) Activation” (Molecules, 2020).

Test system: CAR protein
Assay: Immunofluorescence staining for CAR translocation in Hep3B cells
Format: cell-based, human
Conditions: 10 μM, 2 h
Description: Figure 3 Image of immunofluorescence staining for CAR translocation in Hep3B cells after 6,7-diprenoxycoumarin (50) treatment (A) and scoparone treatment (C). Hep3B cells were treated with 50 (10 μM) for 2 h. The negative control group was pre-treated with 10 nM okadaic acid (OA). The blue and green fluorescence stands for signals of nuclei and CAR protein, respectively. The protein expression of nuclear CAR after 6,7-diprenoxycoumarin (50) treatment for 2 h (B).
Hep3B cells (4 × 10^5) were grown on coverslips for overnight then washed twice with 1× PBS and fixed with 4% paraformaldehyde in 1× PBS for 30 min at room temperature. Cells were then permeabilized with 1× PBS containing 0.1% (v/v) Triton X-100 for 10–15 min and blocked in 1× PBS containing 5% BSA for 1 h at room temperature. CAR antibody (1:200 dilutions) was added and reacted at room temperature for 2 h in 1× PBS containing 5% BSA. FITC-conjugated goat anti-rabbit IgG antibody was added for another 1 h at room temperature. Coverslips were mounted and images were acquired under a fluorescence microscope.

Compound: CC(C)=CCOc1cc2ccc(=O)oc2cc1OCC=C(C)C [Compound 50, 6,7-diprenoxycoumarin]
- translocation of CAR protein: confirmed
